Here are results for 21 compounds from patent US20220364989A1, “METHOD FOR MEASURING PHOTOTOXICITY OR PHOTOALLERGY AND REAGENT FOR USE THEREIN” (FUJIFILM Corporation, priority 2018, published 2022).

Where two headings read alike, the source gives them in different places.

The conditions of data set [1]: cited from earlier work.
The conditions of data set [2]: cited from earlier work. The source holds these as a separate data set.
Data set [3] can be described thus: Average score of NAC and NAL depletion and phototoxicity or photoallergy determination, fluorescence detection. Particulars: under light irradiation, single compound.
Experimental: After being spun down in a centrifuge, the reaction solutions are irradiated with light at 2,000 μW/cm^2 using an SXL-2500V2 ultraviolet irradiation apparatus (manufactured by SERIC., Ltd.) for 1 hour, followed by incubation at 25° C. in a light-shielded state for 23 hours. As controls without light irradiation, reaction solutions are prepared, followed by incubation at 25° C. in a light-shielded state for 24 hours.
As the conditions without light irradiation, the 1 mmol/L test substance solutions were each reacted with the nucleophilic reagents, namely, NAC and NAL, at 25° C. for 24 hours. As the conditions with light irradiation, the 1 mmol/L test substance solutions were each irradiated at room temperature with light at 2,000 μW/cm^2 for 1 hour and were then reacted at 25° C. for 23 hours.
All reactions were performed on the 96-well plate. For each sample, n=3. As comparative controls, reaction solutions to which only the solvents, which are used to dissolve the test substances, were added were also prepared. The reaction solutions were prepared such that the concentrations of NAC and NAL were 5 μmon and the concentration of the test substance was 0.25 mmol/L. After 24 hours, HPLC measurements were made by two detection methods, namely, light absorption detection on a photodiode array (PDA) detector and fluorescence detection on a fluorescence detector. For PDA detection, a trifluoroacetic acid (TFA) aqueous solution was added to the reaction solutions to a final TFA concentration of 0.5% (v/v) before use in the HPLC measurements. For fluorescence detection, each sample was diluted tenfold with a 0.5% (v/v) trifluoroacetic acid (TFA) aqueous solution before use in the HPLC measurements.
The depletions of the nucleophilic reagents (NAC and NAL) were determined by UV detection at 281 nm or fluorescence detection at an excitation wavelength of 284 nm and a fluorescence wavelength of 333 nm under the HPLC measurement conditions given in “(5) HPLC Measurement” above. […]

As to `c1ccc2cc3ccccc3cc2c1` [No. 35, Anthracene], the In vivo photoallergy result in data set [1] (literature classification) is given as “Negative”. In addition, the In vivo phototoxicity entry in data set [2] (literature classification) is listed as “Positive”.

For `Cc1ccc(C=C2C(=O)C3(C)CCC2C3(C)C)cc1` (centres unmarked) [No. 39, 4′-Methylbenzylidene camphor], the “Average score (%)” value in data set [3] was found to be 2.0%. Further, the In vivo photoallergy entry in data set [1] (in vivo) was “Negative”. Also, the In vivo phototoxicity entry in data set [2] (in vivo) is recorded as “Negative”.

As for `CC(=O)Oc1ccccc1C(=O)O` [No. 40, Aspirin], in data set [1] (literature classification), the In vivo photoallergy result was “Negative”. The In vivo phototoxicity entry in data set [2] (literature classification) is given as “Negative”.

Consider `CCOC(=O)c1ccc(N)cc1` [No. 41, Benzocaine], for which the In vivo photoallergy entry in data set [1] (literature classification) was “Negative”. Further, the In vivo phototoxicity result in data set [2] (literature classification) is recorded as “Negative”.

With `COC(=O)c1ccccc1O` [No. 43, Methyl salicylate], in data set [1] (literature classification), the In vivo photoallergy result is “Negative”. The In vivo phototoxicity entry in data set [2] (literature classification) is given as “Negative”.

As for `O=C1NC(=O)C(c2ccccc2)(c2ccccc2)N1` [No. 45, Phenytoin], the In vivo photoallergy result is on record as “Negative” in data set [1] (literature classification); “Negative” in data set [1] (reported in References 1 and 2). Also, the In vivo phototoxicity entry in data set [2] (literature classification) and in data set [2] (reported in References 1 to 3) was “Negative” each time.

In the case of `CC(C)O` [No. 47, 2-Propanol], the “Average score (%)” value in data set [3] is 0.2%. In addition, the In vivo photoallergy entry in data set [1] (in vivo) was “Negative”. Further, in data set [2] (in vivo), the In vivo phototoxicity result is “Negative”.

Take `CCCCCCCCCCCCCCCCO` [No. 49, Cetyl alcohol]: the In vivo photoallergy result in data set [1] (literature classification) is listed as “Negative”. Besides, the In vivo phototoxicity result in data set [2] (literature classification) is on record as “Negative”.

For `CCO` [No. 50, Ethanol], the “Average score (%)” value in data set [3] is given as 0.0%. For the same compound, the In vivo photoallergy entry in data set [1] (in vivo) is on record as “Negative”. In addition, the In vivo phototoxicity entry in data set [2] (in vivo) was “Negative”.

Take `CCCCCCCCCCCCCC(=O)OC(C)C` [No. 52, Isopropyl myristate]: the In vivo photoallergy result in data set [1] (literature classification) is given as “Negative”. Further, in data set [2] (literature classification), the In vivo phototoxicity entry was “Negative”.

In the case of `CCCCCCCCCCCC(=O)O` [No. 53, Lauric acid], in data set [1] (literature classification), the In vivo photoallergy entry was “Negative”. The In vivo phototoxicity result in data set [2] (literature classification) is “Negative”.

`COc1cc(O)c(C(=O)c2ccccc2)cc1S(=O)(=O)O` [No. 57, Sulisobenzone]: the In vivo photoallergy entry in data set [1] (literature classification) was “Negative”. Further, the In vivo phototoxicity entry in data set [2] (literature classification) is given as “Negative”.

For the compound `Cc1ncc(CO)c(CO)c1O.Cl` [compound 9, Pyridoxine HCl], the In vivo photoallergy entry in data set [1] (in vivo) is reported as “Positive”. The In vivo phototoxicity result in data set [2] (in vivo) is listed as “Positive”.

Consider `Nc1ccc(N)cc1` [compound 11, p-Phenylenediamine], for which, in data set [1] (reported in References 1 and 2), the In vivo photoallergy entry is “Positive”. In addition, the In vivo phototoxicity entry in data set [2] (in vivo) is on record as “Positive”.

Take `CNc1ccccc1C(=O)OC` [compound 32, Methyl-N-methylanthranilate]: the In vivo photoallergy result in data set [1] (reported in References 1 and 2) is on record as “Negative”. Further, the In vivo phototoxicity entry in data set [2] (reported in References 1 to 3) was “Positive”.

As for `c1ccc2nc3ccccc3cc2c1` [compound 34, Acridine], the In vivo photoallergy entry in data set [1] (reported in References 1 and 2) is listed as “Negative”. For the same compound, in data set [2] (reported in References 1 to 3), the In vivo phototoxicity result is “Positive”.

As for `c1ccc2cc3ccccc3cc2c1` [compound 35, Anthracene], in data set [1] (reported in References 1 and 2), the In vivo photoallergy entry is on record as “Negative”. The In vivo phototoxicity result in data set [2] (reported in References 1 to 3) is “Positive”.

As to `COC(=O)c1ccccc1O` [compound 43, Methyl salicylate], the In vivo photoallergy result in data set [1] (reported in References 1 and 2) is listed as “Negative”. Further, the In vivo phototoxicity result in data set [2] (reported in References 1 to 3) is listed as “Negative”.

For the compound `CCCCCCCCCCCCCC(=O)OC(C)C` [compound 52, Isopropyl myristate], the In vivo photoallergy result in data set [1] (reported in References 1 and 2) was “Negative”. The In vivo phototoxicity result in data set [2] (reported in References 1 to 3) is reported as “Negative”.

For the compound `CCCCCCCCCCCC(=O)O` [compound 53, Lauric acid], the In vivo photoallergy entry in data set [1] (reported in References 1 and 2) is on record as “Negative”. Besides, the In vivo phototoxicity result in data set [2] (reported in References 1 to 3) is on record as “Negative”.

For the compound `CCCCCCCCCCCC(=O)[O-].[Na+]` [compound 55, Sodium laurate], the In vivo photoallergy entry in data set [1] (reported in References 1 and 2) is listed as “Negative”. Further, the In vivo phototoxicity entry in data set [2] (in vivo) is reported as “Negative”.
